ChEMBL document CHEMBL4376803, “Recent Advances in the Exploration of Therapeutic Analogues of Gramicidin S, an Old but Still Potent Antimicrobial Peptide” (J Med Chem, 2019)
In brackets after ≈: the same amount, converted by molar mass.

How the values were obtained:
[1] = system: Escherichia coli; assay: Antibacterial activity against Escherichia coli DC2 after overnight incubation by microtiter dilution method; type: functional
[2] = system: Pseudomonas aeruginosa; assay: Antibacterial activity against Pseudomonas aeruginosa H188 after overnight incubation by microtiter dilution method; type: functional
[3] = system: Erythrocyte; assay: Haemolytic activity in human RBC after 4 hrs by visual method; type: ADME, cell-based
[4] = system: Enterococcus faecalis; assay: Antibacterial activity against Enterococcus faecalis C625 after overnight incubation by microtiter dilution method; type: functional
[5] = system: Staphylococcus aureus; assay: Antibacterial activity against Staphylococcus aureus K147 after overnight incubation by microtiter dilution method; type: functional
[6] = system: Staphylococcus epidermidis; assay: Antibacterial activity against Staphylococcus epidermidis C621 after 22 hrs by double dilution method; type: functional; settings: C621, 22 h

- MIC [1]: 25 µg/mL (≈ 24.7 µM)
- MIC [2]: 12.5 µg/mL (≈ 12.3 µM)
- MIC [4]: 25 µg/mL (≈ 24.7 µM)
- MIC [5]: 12.5 µg/mL (≈ 12.3 µM)
- MIC [6]: 12.5 µg/mL (≈ 12.3 µM)
Structure (SMILES): CC(C)C[C@@H]1NC(=O)[C@H](CCCN)NC(=O)[C@H](C(C)C)NC(=O)[C@@H]2CC[C@@H]3CC[C@H](NC(=O)[C@H](CC(C)C)NC(=O)[C@@H](CCCN)NC(=O)[C@H](C(C)C)NC(=O)[C@@H]4CC[C@@H]5CC[C@H](NC1=O)C(=O)N54)C(=O)N32
- HC90 [3]: 400 µg/mL
